pIC50: −log10 of the molar value.
Tests used:
[1] = system: withdrawal seizures in alcohol-dependent mice; assay: Predicted anti-seizure activity; format: in vivo, mouse; parameters: key: la = long-acting; The ++ farnesol activity was arbitrary; details: for Predicted anti-seizure activity: based on effect on L-type Ca^2+ channels, CLogP and reversibility or ADH-FolDH recognition; for Predicted anti-seizure activity: long-acting (la): duration flag in brackets
WSP1 mice = assay: Acute ethanol withdrawal HIC scoring in WSP1 mice; format: in vivo, mouse
Description: experiments were conducted in two mouse strains: […], 1994; Crabbe & […], in preparation), but are sometimes preferred to the WSP1 mice for the screening of anti-AWS drugs, because of their lower basal level of convulsions (in the absence of alcohol). […] Immediately after the hour-7 time point HIC score (a time of maximal withdrawal in this strain), animals were injected with either 200 mg/kg farnesol (suspension in saline containing 3 g/l bovine serum albumin) or vehicle, and scored 8, 16, 24, 32, 40, 48 and 56 minutes later using a scale from 0 to 7 (Crabbe, 1991; scoring scale shown in TABLE 1). The time course was then resumed (animals were scored at hour 8, etc.).

[2] = system: pentylenetetrazole-induced seizures; details: in vivo; cited from earlier work
[3] = biological target: T1, R-type Ca^2+ channels (α1E) (Homo sapiens, UniProt Q15878); details: micromolar concentration; cited from earlier work
T1 construct: host or cells: HEK cells

[4] = biological target: T2, neuronal voltage-gated, L-type (Cav1.3) α1D subunit Ca^2+ channel (Rattus norvegicus, UniProt P27732); details: PC12 cells; cited from earlier work
T2 construct: KCl-induced intracellular Ca^2+ signaling in non-NGF treated PC12 cells loaded with fura-2; endogenous in cells; host or cells: PC12 cells (non-NGF treated)

[5] = biological target: T3, N-type Ca^2+ channel (α1B) (Homo sapiens, UniProt Q00975); details: cited from earlier work
T3 construct: host or cells: HEK cells

[6] = biological target: T2, neuronal voltage-gated, L-type (Cav1.3) α1D subunit Ca^2+ channel; assay: KCl-induced Ca^2+ signaling in fura-2 loaded PC12 cells; format: cell-based
Excerpt: According to particular aspects of the present invention, the alcohol group is essential for activity. Additionally, the activity of farnesol metabolites on neuronal voltage-gated L-type Ca^2+ channels was investigated. […] The Ca^2+ channel activity is expressed as % inhibition of KCl-induced intracellular Ca^2+ signaling in non-NGF differentiated PC12 cells loaded with fura-2 (see Materials and Methods under Example 2). The assayed molecules are: FPP—farnesyl pyrophosphate; FOH—all-trans farnesol; FCHO—all-trans farnesal; and FCOOH—all-trans farnesoic acid (prepared by Dr. McDougal).
(§1) To identify compounds with enhanced L-type Ca^2+ channel blocker activity, several compounds were either purchased or synthesized, and then tested for their ability to inhibit: (1) KCl-induced contraction in isolated arteries; (2) KCl-induced Ca^2+ signaling in fura-2 loaded arteries; and (3) KCl-induced Ca^2+ signaling in fura-2 loaded PC12 cells, all using art-recognized methods established in the applicants' laboratories (Roullet, 1993, 1994, 1995, 1997; De Lima, 1999). Arteries express smooth muscle voltage-gated, L-type (Cav1.2 or α1C subunit) Ca^2+ channels, whereas PC12 cells constitutively express the neuronal voltage-gated, L-type (Cav1.3) α1D subunit (Ertel, 2000).
Ca^2+ channel activity is expressed as % inhibition of KCl-induced intracellular Ca^2+ signaling in non-NGF treated PC12 cells loaded with fura-2.

[7] = biological target: T4, cardiac L-type Ca^2+ channels (α1C) (Homo sapiens, UniProt Q13936); details: micromolar concentration; cited from earlier work
T4 construct: host or cells: HEK cells

[8] = biological target: T5, P/Q-type Ca^2+ channels (α1A) (Homo sapiens, UniProt O00555); details: micromolar concentration; cited from earlier work
T5 construct: host or cells: HEK cells

DBA/2J mice = format: in vivo, mouse
Description: experiments were conducted in two mouse strains: Withdrawal Seizure Prone replicate 1 (WSP1); and DBA/2J. WSP1 mice have been selectively bred for their high sensitivity to ethanol and enhanced expression of alcohol withdrawal seizures (Kosobud, 1995; Metten, 1996). DBA/J2 mice also have pronounced alcohol withdrawal symptoms following either chronic treatment or a single injection of a hypnotic dose of alcohol (Crabbe, 1983; Metten, 1994; Crabbe & Metten, in preparation), but are sometimes preferred to the WSP1 mice for the screening of anti-AWS drugs, because of their lower basal level of convulsions (in the absence of alcohol).
DBA/2J mice (males and females; mean BW=23 g; n=44) were injected intra peritoneally (i.p.) with a loading dose of 1.5 g/kg ethanol (20% v/v saline solution) and with 68.1 mg/kg pyrazole hydrochloride, and then placed for 72 h into inhalation chambers (3-4 animals/cage) set at 5 mg ethanol/L air (Guppy, 1995; Crabbe, 1998). The animals were removed from the chambers after 24 and 48 h, and re-injected with pyrazole. The pyrazole injections are necessary to reduce mortality and heterogeneity in withdrawal reactions (Goldstein, 1972). A second group of animals matched for BW and sex (n=32), were housed under normal (‘air-breathing’) conditions and served as pyrazole-injected controls. All animals had free access to food and water and were housed with a 12 hr day-night light cycle. Upon withdrawal from the chambers (t=0), body weight was determined and a tail blood sample was collected for the determination of blood alcohol concentration (BEC, alcohol-treated animals only; Crabbe, 1998). […] Injections were made either 3 hours (GROUP A) or 6 hours (GROUP B) after withdrawal (approximately half of the animals were used in each group). These time points were chosen to precede peak withdrawal (GROUP A at 3 hours) as it begins to ascend above control levels to determine whether farnesol would prevent withdrawal, and to treat withdrawal at its peak (GROUP B at 6 hours). HICs were scored hourly until injections (0 to 3 h for GROUP A and 0 to 6 h for GROUP B). Immediately after HIC scoring at the hour-3 or hour-6 time points, the animals were injected with farnesol or vehicle, and scored 10, 20, 30 and 40 minutes later. The hourly scoring was then resumed at either 4 hours or 7 hours, and continued to the 10-hour time point.

[9] = biological target: T6, voltage-gated L-type Ca^2+ channels (Homo sapiens, UniProt Q13936); details: cited from earlier work
T6 construct: host or cells: arteries / vascular smooth muscle cells

ADH = details: cited from earlier work
[10] = biological target: T7, N-type Ca^2+ channel (α1B subunit) (Homo sapiens, UniProt Q00975); assay: Patch-clamp on HEK cells transfected with human α1B (Cav2.2) subunits; format: cell-based; details: at 5 min; Hp=−100 mV; 20 mM Ba^2+
T7 construct: expressed in transfected cells; host or cells: HEK cells
Description: FIGS. 4A and 4B show neuronal (α1D subunit) L-type Ca^2+ channel (Ca^2+ signaling in fura-2 loaded PC12 cells) (FIG. 4A); on neuronal (α1B subunit) N-type Ca^2+ channel (α1B-transfected HEK cells; as in Roullet, 1999) (FIG. 4B). Current-voltage relationship (IV) recording conditions were: holding potential (hp)=−100 mV; 20 mM Ba^2+. Inhibition of N-type currents was ˜90% at 5 min.
Experiments (FIG. 4) using patch-clamp techniques and HEK cells transfected with human α1B (Cav2.2) subunits further indicate that, like farnesol, retinol also blocks N-type calcium channels. FIGS. 4A and 4B show, according to preferred aspects of the present invention, the effect of all-trans retinol on: neuronal (α1D subunit) L-type Ca^2+ channel (Ca^2+ signaling in fura-2 loaded PC12 cells) (FIG. 4A); an on neuronal (α1B subunit) N-type Ca^2+ channel (α1B-transfected HEK cells; as in Roullet, 1999) (FIG. 4B). IV recording conditions were: Hp=−100 mV; 20 mM Ba^2+. Inhibition of N-type currents was ˜90% at 5 min.

L-type Ca^2+ channel = biological target: T8, L-type Ca^2+ channel (Mus musculus, UniProt Q01815); assay: Reversibility of inhibition of L-type Ca^2+ channel mediated arterial contraction after wash-out
T8 construct: KCl-induced contraction in isolated arteries; from tissue; host or cells: mouse mesenteric arteries
T8 sequence (Q01815 whole entry): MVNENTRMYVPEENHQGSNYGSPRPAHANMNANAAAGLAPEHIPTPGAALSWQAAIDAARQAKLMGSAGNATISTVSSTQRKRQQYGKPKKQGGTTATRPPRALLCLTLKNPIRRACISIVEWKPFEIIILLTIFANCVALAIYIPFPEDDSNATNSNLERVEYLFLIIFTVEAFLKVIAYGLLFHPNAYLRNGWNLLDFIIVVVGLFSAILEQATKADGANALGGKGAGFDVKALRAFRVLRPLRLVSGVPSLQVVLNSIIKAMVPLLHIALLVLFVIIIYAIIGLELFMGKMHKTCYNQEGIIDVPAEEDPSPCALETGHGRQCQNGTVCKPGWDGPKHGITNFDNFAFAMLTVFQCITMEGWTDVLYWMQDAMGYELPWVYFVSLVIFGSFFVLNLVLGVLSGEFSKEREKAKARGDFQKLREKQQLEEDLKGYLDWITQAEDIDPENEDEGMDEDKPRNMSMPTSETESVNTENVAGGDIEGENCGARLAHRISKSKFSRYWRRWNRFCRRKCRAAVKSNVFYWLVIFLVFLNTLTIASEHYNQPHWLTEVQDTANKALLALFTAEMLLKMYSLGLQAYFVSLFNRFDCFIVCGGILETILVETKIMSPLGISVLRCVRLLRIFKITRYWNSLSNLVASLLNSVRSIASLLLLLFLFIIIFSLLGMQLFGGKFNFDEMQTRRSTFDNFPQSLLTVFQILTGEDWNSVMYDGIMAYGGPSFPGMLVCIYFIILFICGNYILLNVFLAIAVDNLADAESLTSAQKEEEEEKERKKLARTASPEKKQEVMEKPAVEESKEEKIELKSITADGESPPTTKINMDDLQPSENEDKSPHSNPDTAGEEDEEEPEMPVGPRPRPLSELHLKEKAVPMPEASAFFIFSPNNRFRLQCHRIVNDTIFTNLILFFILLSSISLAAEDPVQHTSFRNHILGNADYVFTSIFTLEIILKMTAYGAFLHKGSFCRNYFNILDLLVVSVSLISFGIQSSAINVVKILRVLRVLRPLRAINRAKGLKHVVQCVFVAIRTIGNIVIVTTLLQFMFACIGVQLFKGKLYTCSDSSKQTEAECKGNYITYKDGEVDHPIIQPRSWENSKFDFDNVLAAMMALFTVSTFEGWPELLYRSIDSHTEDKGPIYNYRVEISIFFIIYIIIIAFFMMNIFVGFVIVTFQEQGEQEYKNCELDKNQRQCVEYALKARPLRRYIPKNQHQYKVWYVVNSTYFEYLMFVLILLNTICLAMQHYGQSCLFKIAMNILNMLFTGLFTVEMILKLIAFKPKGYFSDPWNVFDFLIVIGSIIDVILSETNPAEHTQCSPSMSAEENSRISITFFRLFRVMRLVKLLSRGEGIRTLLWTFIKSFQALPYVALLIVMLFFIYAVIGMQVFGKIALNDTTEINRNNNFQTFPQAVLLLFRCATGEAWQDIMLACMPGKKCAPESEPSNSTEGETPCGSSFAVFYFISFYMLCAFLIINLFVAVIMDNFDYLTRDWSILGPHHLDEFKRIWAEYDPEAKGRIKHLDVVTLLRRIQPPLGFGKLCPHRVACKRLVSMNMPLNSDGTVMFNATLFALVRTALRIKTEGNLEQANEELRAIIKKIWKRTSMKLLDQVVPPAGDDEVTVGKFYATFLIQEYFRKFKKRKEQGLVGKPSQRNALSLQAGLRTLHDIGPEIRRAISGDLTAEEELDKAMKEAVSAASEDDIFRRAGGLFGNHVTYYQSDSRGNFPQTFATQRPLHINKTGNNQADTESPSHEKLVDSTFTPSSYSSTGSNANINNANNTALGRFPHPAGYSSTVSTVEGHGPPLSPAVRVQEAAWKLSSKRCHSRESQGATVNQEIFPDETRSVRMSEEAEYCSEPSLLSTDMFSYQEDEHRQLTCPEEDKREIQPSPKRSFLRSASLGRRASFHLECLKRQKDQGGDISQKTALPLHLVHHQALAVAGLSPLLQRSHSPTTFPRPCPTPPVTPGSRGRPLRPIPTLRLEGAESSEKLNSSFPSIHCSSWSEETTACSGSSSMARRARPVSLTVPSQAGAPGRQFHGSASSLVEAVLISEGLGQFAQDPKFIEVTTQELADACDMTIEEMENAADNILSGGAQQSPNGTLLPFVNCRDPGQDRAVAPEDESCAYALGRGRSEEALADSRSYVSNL
T8 sequence (P54285 whole entry partner): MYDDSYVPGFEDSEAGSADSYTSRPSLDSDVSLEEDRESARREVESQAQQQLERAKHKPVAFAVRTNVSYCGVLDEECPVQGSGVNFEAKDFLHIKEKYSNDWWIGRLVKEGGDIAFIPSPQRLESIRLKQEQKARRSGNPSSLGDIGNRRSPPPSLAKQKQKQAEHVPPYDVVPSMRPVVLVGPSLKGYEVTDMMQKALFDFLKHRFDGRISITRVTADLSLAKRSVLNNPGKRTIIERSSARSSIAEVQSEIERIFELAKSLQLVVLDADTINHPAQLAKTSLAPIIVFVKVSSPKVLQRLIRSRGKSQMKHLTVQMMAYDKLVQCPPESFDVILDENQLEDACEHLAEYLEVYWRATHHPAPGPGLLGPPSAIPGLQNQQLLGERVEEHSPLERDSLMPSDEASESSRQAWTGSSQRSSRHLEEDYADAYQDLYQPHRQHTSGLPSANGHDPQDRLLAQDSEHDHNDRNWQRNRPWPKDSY
T8 sequence (O08532 25-956 partner limits assumed): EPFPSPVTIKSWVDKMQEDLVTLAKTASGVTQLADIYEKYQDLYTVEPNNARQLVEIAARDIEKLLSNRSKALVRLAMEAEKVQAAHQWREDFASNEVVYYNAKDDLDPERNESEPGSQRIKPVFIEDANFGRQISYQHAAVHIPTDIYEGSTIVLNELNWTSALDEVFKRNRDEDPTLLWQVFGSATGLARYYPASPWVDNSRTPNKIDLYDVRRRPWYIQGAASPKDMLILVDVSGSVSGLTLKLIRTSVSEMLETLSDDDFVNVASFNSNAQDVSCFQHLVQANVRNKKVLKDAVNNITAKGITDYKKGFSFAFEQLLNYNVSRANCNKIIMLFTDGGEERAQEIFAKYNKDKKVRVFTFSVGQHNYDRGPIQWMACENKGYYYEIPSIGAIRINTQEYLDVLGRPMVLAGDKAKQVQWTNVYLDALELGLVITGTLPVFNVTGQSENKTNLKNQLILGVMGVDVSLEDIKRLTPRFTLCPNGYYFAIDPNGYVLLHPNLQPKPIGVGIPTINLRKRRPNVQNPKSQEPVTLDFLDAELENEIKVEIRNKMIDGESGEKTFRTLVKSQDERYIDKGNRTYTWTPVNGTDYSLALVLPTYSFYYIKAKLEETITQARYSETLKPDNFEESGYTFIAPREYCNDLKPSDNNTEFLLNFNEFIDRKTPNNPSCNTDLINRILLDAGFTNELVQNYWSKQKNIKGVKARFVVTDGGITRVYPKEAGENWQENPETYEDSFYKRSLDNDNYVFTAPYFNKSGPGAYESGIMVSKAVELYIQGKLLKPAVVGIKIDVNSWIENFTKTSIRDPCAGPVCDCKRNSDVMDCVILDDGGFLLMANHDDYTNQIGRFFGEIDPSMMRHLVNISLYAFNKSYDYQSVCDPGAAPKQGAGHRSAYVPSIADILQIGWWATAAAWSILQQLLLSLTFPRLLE
T8 sequence (O08532 957-1103 partner limits assumed): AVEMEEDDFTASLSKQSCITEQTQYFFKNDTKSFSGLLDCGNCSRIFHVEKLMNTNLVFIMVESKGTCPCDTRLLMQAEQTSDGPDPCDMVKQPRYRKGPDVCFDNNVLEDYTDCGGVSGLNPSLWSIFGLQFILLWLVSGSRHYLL
Description: (§2) Contractions obtained after 30 min. incubation with the test compounds (left portion of graph), and after a 60-min. wash-out (right portion of graph).
(§3) Moreover, farnesylamine is likely to be metabolized through pathways different from those involved in farnesol clearance.

[11] = biological target: T9, human recombinant monoamine oxidase A (Homo sapiens, UniProt P21397); assay: Monoamine oxidase substrate test; format: in vitro ADME; details: rat liver mitochondrial membranes and human recombinant monoamine oxidase A and B
T9 sequence (P21397 1-527): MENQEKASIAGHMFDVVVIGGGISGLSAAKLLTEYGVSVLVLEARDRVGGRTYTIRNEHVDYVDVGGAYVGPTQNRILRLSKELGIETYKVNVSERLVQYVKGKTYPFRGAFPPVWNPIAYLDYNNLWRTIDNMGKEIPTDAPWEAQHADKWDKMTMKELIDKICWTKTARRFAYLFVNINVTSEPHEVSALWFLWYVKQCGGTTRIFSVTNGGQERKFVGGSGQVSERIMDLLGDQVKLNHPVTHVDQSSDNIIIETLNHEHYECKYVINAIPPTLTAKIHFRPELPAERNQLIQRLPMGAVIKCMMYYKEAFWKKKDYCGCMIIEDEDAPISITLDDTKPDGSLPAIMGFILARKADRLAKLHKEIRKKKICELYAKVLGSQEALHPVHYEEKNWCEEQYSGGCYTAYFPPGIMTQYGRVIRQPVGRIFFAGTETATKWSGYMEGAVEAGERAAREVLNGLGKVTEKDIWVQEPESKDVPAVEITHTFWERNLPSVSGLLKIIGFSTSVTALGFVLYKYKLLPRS
Excerpt: as §3

[12] = biological target: T10, smooth muscle voltage-gated, L-type (Cav1.2 or α1C subunit) Ca^2+ channels (Mus musculus, UniProt Q01815); assay: KCl-induced contraction in isolated arteries; details: FIG. 5 / FIG. 6 (25 μM)
T10 construct: KCl-induced contraction in isolated arteries; from tissue; host or cells: mouse mesenteric arteries
T10 sequence (Q01815 whole entry): as the sequence (Q01815 whole entry) above
T10 sequence (P54285 whole entry partner): as the sequence (P54285 whole entry partner) above
T10 sequence (O08532 25-956 partner limits assumed): as the sequence (O08532 25-956 partner limits assumed) above
T10 sequence (O08532 957-1103 partner limits assumed): as the sequence (O08532 957-1103 partner limits assumed) above
Description: as §2, §1

## CC(C)=CCC/C(C)=C/CC/C(C)=C/CO [All-trans farnesol, (2E,6E)-3,7,11-trimethyldodeca-2,6,10-trien-1-ol]
[1]
  Predicted anti-seizure activity: ++
WSP1 mice; 200 mg/kg
  reduction in peak ethanol withdrawal: ~56%
WSP1 mice; 200 mg/kg after hour 7, average of 24, 32 and 40 minute scores, scale 0 to 7
  peak withdrawal effect (HIC score): 2.67±0.29
WSP1 mice; 200 mg/kg, after injection at hour 7
  time point of maximum effect: 32 min
WSP1 mice; 200 mg/kg, preliminary experiments
  effect on basal HICs in naïve WSP1 mice: tended to reduce basal HICs
[2]
  prevention of pentylenetetrazole-induced seizures: not prevent
[3]
  activity on R-type Ca^2+ channels: inactive
[4]
  activity on neuronal L-type Ca^2+ channels (literature / prior studies): inhibits
[5]; at 250 nM farnesol, typical neuronal resting membrane potential
  block of the N-type channel: ~50%
[5]; micromolar concentration
  activity on N-type Ca^2+ channels: inhibits
[6]; PC12 cells in culture, n=3/group, FIG. 3
  block of KCl-induced Ca^2+ signaling: 65%
[7]
  activity on cardiac L-type Ca^2+ channels: inhibits
[8]
  activity on P/Q-type Ca^2+ channels: inactive
DBA/2J mice; 300 mg/kg i.p., injected 3 hours after withdrawal
  Percent seizure reduction, GROUP A: 99%
DBA/2J mice; 300 mg/kg i.p., injected 6 hours after withdrawal
  Percent seizure reduction, GROUP B: 78%
DBA/2J mice; 300 mg/kg i.p., pyrazole-injected controls
  effect on HIC scores in ‘air-breathing’ animals: no significant effect
DBA/2J mice; at 50 mg/kg, worded "Preferably"
  effect on HICs in withdrawing animals, 50 mg/kg: no effect
DBA/2J mice; dose of 300 mg/kg
  effect on HICs in withdrawing animals, 300 mg/kg: suppresses almost completely
DBA/2J mice; mouse, in vivo
  death after injections: No death
  duration of the farnesol effect: approximately 1 hour
  toxicity of the dose inducing complete seizure suppression: non toxic
[9]; reversible and dose-dependent, read-out: IC50, effect on arteries
  pIC50: ~5.70

## CC1=C(/C=C/C(C)=C/C=C/C(C)=C/CO)C(C)(C)CCC1 [Retinol, (2E,4E,6E,8E)-3,7-dimethyl-9-(2,6,6-trimethylcyclohex-1-enyl)nona-2,4,6,8-tetraen-1-ol]
[1]
  Predicted anti-seizure activity: ++
  Predicted anti-seizure activity: long-acting (la): la
ADH
  metabolism by class IV ADH: metabolized by class IV ADH
[10]
  Inhibition of N-type currents: ~90%
L-type Ca^2+ channel
  reversibility of effect compared with farnesol: significantly less reversible
[4]
  activity on neuronal L-type Ca^2+ channels (literature / prior studies): blocks efficiently
[6]; read-out: IC50 on L-type Ca^2+ channels
  pIC50: 5.30
[9]
  activity on Ca^2+ channels / smooth muscle L-type channels (literature / prior studies): blocks efficiently

## CC(C)=CCC/C(C)=C/CC/C(C)=C/CN [Farnesylamine, (2E,6E)-3,7,11-trimethyldodeca-2,6,10-trien-1-amine]
[11]
  substrate for monoamine oxidase: specific substrate for monoamine oxidase A
[1]
  Predicted anti-seizure activity: long-acting (la): la
L-type Ca^2+ channel
  reversibility of effect compared with farnesol: relatively less reversible
L-type Ca^2+ channel; 25 μM, 30 min incubation, 60-min. wash-out, read-out: inhibition of arterial contraction still observed after wash-out
  inhibition at 25 µM: ~80%
[12]
  activity on KCl-induced arterial contraction: more potent inhibitor of arterial contractions than farnesol
